From PMC3774728, “Identification of the Plant Compound Geraniin as a Novel Hsp90 Inhibitor” (PLoS ONE, 2013)

Columns and labels:
Hsp90α ATPase activity = target: T1, Hsp90α ATPase activity (Homo sapiens, UniProt P07900); assay: ATP hydrolysis inhibition (ADP Hunter Plus assay); format: biochemical; conditions: 40 nM Hsp90α, 100 µM ATP, 60 min, 40°C
T1 construct: purchased Assay Designs (Ann Arbor, MI, USA)
Protocol: The assay was performed using the Discover RX ADP HunterTM Plus Assay kit, following the manufacturer’s instructions. ATPase reactions were carried out for 60 min at 40°C temperature in 100 mM Tris pH 7.4, 100 µM ATP and 40 nM Hsp90α in the presence of different concentrations of geraniin or 17-AAG. ADP generation was measured using a Perkin Elmer LS 55 fluorimeter (540 nm excitation and 620 nm emission). Fluorescence intensity values measured for Hsp90α without any compound were set at 100% of enzyme activity. The background reaction rate was measured in a reaction lacking enzyme or substrate and subtracted from the experimental rates.
(§1) Figure 3 Inhibition of Hsp90α activity. ATPase activity of the chaperone was evaluated in the presence of different concentrations of geraniin, 17-AAG and HA (A). Data are reported as the residual ATPase activity (%) compared to that observed for an untreated sample. Data are the mean of three independent experiments performed in triplicate and were analyzed by t test (HA vs testing compounds): The error bar represents the standard deviation of nine measurements, while * indicates significance at P<0.01. Aggregation kinetics of citrate synthase (CS) at 43°C determined by light scattering (B). […]

[1] = system: PHA-stimulated proliferating PBMC; assay: Hypodiploidy/necrosis by flow cytometry, PHA-stimulated PBMC; format: cell-based, human; conditions: untreated cells 1.5±0.8%
Protocol: Jurkat and HeLa (epithelial carcinoma) cells, obtained from Cell Bank in GMP-IST (Genova, Italy) were maintained in RPMI 1640 medium or Dulbecco’s modified Eagle medium (DMEM), respectively, supplemented with 10% (v/v) FBS, 2 mM L−glutamine and antibiotics (100 U mL^−1 penicillin, 100 µg mL^−1 streptomycin) purchased from Invitrogen (Carslbad, CA, USA), at 37°C in humidified atmosphere with 5% CO2. To ensure logarithmic growth, cells were subcultured every two days. As control cells, human peripheral blood mononuclear cells (PBMC) were isolated from buffy coats of healthy donors (kindly provided by the Blood Center of the Hospital of Battipaglia, Salerno, Italy) by using standard Ficoll−Hypaque gradients. Freshly isolated PBMC contained 92.8±3.1% live cells. Proliferation of PBMC was induced by phytohemagglutinin (PHA) (10 µg mL^−1). […]
Cell DNA content was measured by propidium iodide (PI) incorporation into permeabilized cells, as described by Nicoletti et al.. […] The percentage of cells in the sub G0/G1 phase, apoptotic fraction, was quantified using CellQuest software (Becton Dickinson). The distribution of cells in G0/G1, S, G2/M phases was determined using ModFit LT cell cycle analysis software (Becton Dickinson). Results were expressed as a mean ± SD of three experiments performed in triplicate.

[2] = target: T2, Hsp90α chaperone activity (Homo sapiens, UniProt P07900); assay: Citrate synthase thermal-induced aggregation assay (chaperone activity); format: biochemical; conditions: 0.075 µM CS, 0.075 µM Hsp90α, 0.3 µM ATP, four-fold molar excess (0.3 µM) compound, 43°C
T2 construct: purchased Assay Designs (Ann Arbor, MI, USA)
Protocol: Chaperone activity was evaluated by monitoring the thermal−induced aggregation of citrate synthase (CS) (0.075 µM), as reported elsewhere, in the absence or presence of a stoichiometric amount of Hsp90α and 0.3 µM ATP, and with or without a four−fold molar excess of each testing compound. Aggregation was initiated by unfolding CS incubating the protein in 40 mM HEPES–KOH, pH 7.5 at 43°C. Aggregation was monitored by measuring light scattering at right angles with the Perkin Elmer LS 55 fluorimeter in stirred and thermostatted quartz cells. Both the emission and excitation wavelengths were set at 500 nm, while the band–pass was 2 nm. Kinetics traces reported are the averages of two separate measurements.
as §1

O=C1O[C@H]2[C@@H]3OC(=O)c4cc(O)c(O)c(O)c4-c4c(cc(O)c(O)c4O)C(=O)OC[C@H]2O[C@@H](OC(=O)c2cc(O)c(O)c(O)c2)[C@@H]3OC(=O)c2cc(O)c(O)c3c2[C@@H]2C1=CC(=O)[C@](O)(O3)C2(O)O [Compound 54, geraniin]
Hsp90α ATPase activity inhibition (Hsp90α ATPase activity): inhibit Hsp90α ATPase activity in a dose−dependent manner | levels of hypodiploidy/necrosis [1]: 2.6±1.3% | effect on citrate synthase aggregation kinetics in the presence of Hsp90α [2]: the curve slope clearly increased
